In US20230046416A1 (Soteria Biotherapeutics, Inc., priority 2019, published 2023):

Tested on: AZ21
Assay: Biolayer interferometry, Ab59 binding to immobilized AZ21
Method: Binding kinetics between BCl-2 fusion protein Ab59 and AZ-21 was assayed by biolayer interferometry. […] Curves represent measured data points on an Octet RED384.

AZ21, sequence (P10415 1-207 C158A limits assumed): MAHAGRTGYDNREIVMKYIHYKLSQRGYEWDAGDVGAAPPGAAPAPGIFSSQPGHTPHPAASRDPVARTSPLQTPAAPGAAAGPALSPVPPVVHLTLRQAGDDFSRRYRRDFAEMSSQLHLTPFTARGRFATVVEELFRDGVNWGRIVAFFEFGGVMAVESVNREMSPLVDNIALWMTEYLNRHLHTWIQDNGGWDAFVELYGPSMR

Substance: Ab59: heterodimeric Fc fusion protein: BCl-2 C158A linked to a human IgG1 Fc, plus a second human IgG1 Fc domain
- binding to AZ21 in the presence of ABT-199 (with ABT-199, FIG. 25B): potent and reversible binding
- binding to AZ21 in the absence of ABT-199 (without ABT-199, FIG. 25B): no significant binding
